Common to all, as to test: microbe, parasite or virus in culture
Type in all cases: cell-based

The subject of test [1] is Yersinia pestis (YP; Gram-negative). The following applies: read-out: MIC YP.
The subject of test [2] is Bacillus anthracis (BA; Gram-positive). The following applies: read-out: MIC BA.
For test [3], the system named is Burkholderia pseudomallei (BP; Gram-negative). The following applies: read-out: MIC BP.
Test [4] relates to Francisella tularensis (FT; Gram-negative). The following applies: read-out: MIC FT.
For test [5], the system named is Brucella abortus (BAB; Gram-negative). The following applies: read-out: MIC BAB.
Test [6] has as its system Burkholderia mallei (BM; Gram-negative). The following applies: read-out: MIC BM.

The source of these data is US8399502B2, “Analogs of indole-3-carbinol and their use as agents against infection” (priority 2008, dated 2013).

SMILES strings stand for the structures. Values after ≈ are worked out from the molar mass of the structure shown.

Regarding `CNCCOc1c2[nH]c3ccc(F)cc3c2cc2c1[nH]c1ccc(F)cc12`, the MIC in test [1] amounted to 8 µg/mL (≈ 21.9 µM); in test [2] it was 1 µg/mL (≈ 2.74 µM); in test [3], 16 µg/mL (≈ 43.8 µM); in test [4], 0.5 µg/mL (≈ 1.37 µM); in test [5], 0.5 µg/mL (≈ 1.37 µM); in test [6], 4 µg/mL (≈ 10.9 µM).

As for `N[C@H]1CCN(CCCOc2c3[nH]c4ccc(Cl)cc4c3cc3c2[nH]c2ccc(Cl)cc23)C1`, the MIC in test [1] is 2 µg/mL (≈ 4.28 µM); in test [2], 0.5 µg/mL (≈ 1.07 µM); in test [3], above 8 µg/mL; in test [4], 0.5 µg/mL (≈ 1.07 µM); in test [5], 0.25 µg/mL (≈ 0.535 µM); in test [6] it was above 8 µg/mL.

Regarding `C[N+](C)(C)CCOc1c2[nH]c3ccc(F)cc3c2cc2c1[nH]c1ccc(F)cc12.[I-]`, the MIC was above 8 µg/mL in test [1]; 0.5 µg/mL in test [2]; 8 µg/mL in test [3]; 1 µg/mL in test [4]; 2 µg/mL in test [5]; 8 µg/mL in test [6].

Take `Nc1nnn(CCCOc2c3[nH]c4ccc(Cl)cc4c3cc3c2[nH]c2ccc(Cl)cc23)n1`: the MIC is above 8 µg/mL in test [1]; 0.5 µg/mL (≈ 1.07 µM) in test [2]; above 8 µg/mL in test [3]; 1 µg/mL (≈ 2.14 µM) in test [4]; 1 µg/mL (≈ 2.14 µM) in test [5]; above 8 µg/mL in test [6].

Consider `Nc1nnnn1CCCOc1c2[nH]c3ccc(Cl)cc3c2cc2c1[nH]c1ccc(Cl)cc12`, for which the MIC in test [1] is above 8 µg/mL; in test [2], 0.5 µg/mL (≈ 1.07 µM); in test [3], above 8 µg/mL; in test [4] it was 1 µg/mL (≈ 2.14 µM); in test [5], 0.5 µg/mL (≈ 1.07 µM); in test [6], above 8 µg/mL.

Consider `Nc1nc(N)n(CCCOc2c3[nH]c4ccc(Cl)cc4c3cc3c2[nH]c2ccc(Cl)cc23)n1`, for which the MIC in test [1] is 8 µg/mL (≈ 16.7 µM); in test [2], 0.5 to 1 µg/mL (≈ 1.04 to 2.08 µM); in test [3], above 8 µg/mL; in test [4] it was 1 µg/mL (≈ 2.08 µM); in test [5] it was 1 µg/mL (≈ 2.08 µM); in test [6], above 8 µg/mL.

For the compound `Clc1ccc2[nH]c3c(OC4CCNC4)c4[nH]c5ccc(Cl)cc5c4cc3c2c1` (stereo not drawn), the MIC in test [1] was 1 µg/mL (≈ 2.44 µM); in test [2] it was 0.5 to 1 µg/mL (≈ 1.22 to 2.44 µM); in test [3], 4 µg/mL (≈ 9.75 µM); in test [4], 0.25 to 1 µg/mL (≈ 0.609 to 2.44 µM); in test [5] it was 0.25 µg/mL (≈ 0.609 µM); in test [6], 2 µg/mL (≈ 4.87 µM).

For the compound `Clc1ccc2[nH]c3c(OCCCc4nnn[nH]4)c4[nH]c5ccc(Cl)cc5c4cc3c2c1`, the MIC was above 8 µg/mL in test [1]; 0.5 µg/mL (≈ 1.11 µM) in test [2]; above 8 µg/mL in test [3]; 1 µg/mL (≈ 2.22 µM) in test [4]; 1 µg/mL (≈ 2.22 µM) in test [5]; above 8 µg/mL in test [6].

Regarding `Nc1nnc(N)n1CCCOc1c2[nH]c3ccc(Cl)cc3c2cc2c1[nH]c1ccc(Cl)cc12`, the MIC is 4 µg/mL (≈ 8.33 µM) in test [1]; 1 µg/mL (≈ 2.08 µM) in test [2]; above 8 µg/mL in test [3]; 1 µg/mL (≈ 2.08 µM) in test [4]; 1 µg/mL (≈ 2.08 µM) in test [5]; above 8 µg/mL in test [6].

Consider `OC1CCN(CCOc2c3[nH]c4ccc(F)cc4c3cc3c2[nH]c2ccc(F)cc23)CC1`, for which the MIC in test [1] was 4 µg/mL (≈ 9.19 µM); in test [2], 0.5 µg/mL (≈ 1.15 µM); in test [3], above 8 µg/mL; in test [4], 0.5 µg/mL (≈ 1.15 µM); in test [5] it was 1 µg/mL (≈ 2.3 µM); in test [6], 8 µg/mL (≈ 18.4 µM).

Take `CN(C)CCOc1c2[nH]c3cc(F)ccc3c2cc2c1[nH]c1cc(F)ccc12`: the MIC was above 8 µg/mL in test [1]; 1 µg/mL (≈ 2.64 µM) in test [2]; above 8 µg/mL in test [3]; 0.5 µg/mL (≈ 1.32 µM) in test [4]; 0.5 µg/mL (≈ 1.32 µM) in test [5]; above 8 µg/mL in test [6].

With `CCOC(=O)c1ccc2[nH]c3c(OCCN)c4[nH]c5ccc(C(=O)OCC)cc5c4cc3c2c1`, the MIC is above 8 µg/mL in test [1]; 2 µg/mL (≈ 4.35 µM) in test [2]; above 8 µg/mL in test [3]; 1 µg/mL (≈ 2.18 µM) in test [4]; 1 µg/mL (≈ 2.18 µM) in test [5]; above 8 µg/mL in test [6].

Consider `Fc1ccc2[nH]c3c(OC4CCNCC4)c4[nH]c5ccc(F)cc5c4cc3c2c1`, for which the MIC is 8 µg/mL (≈ 20.4 µM) in test [1]; at most 0.25 µg/mL in test [2]; 8 µg/mL (≈ 20.4 µM) in test [3]; at most 0.25 µg/mL in test [4]; at most 0.25 µg/mL in test [5]; 4 µg/mL (≈ 10.2 µM) in test [6].

`Clc1ccc2[nH]c3c(OCC4CCNCC4)c4[nH]c5ccc(Cl)cc5c4cc3c2c1`: the MIC in test [1] was 2 µg/mL (≈ 4.56 µM); in test [2] it was 0.5 µg/mL (≈ 1.14 µM); in test [3], above 8 µg/mL; in test [4], 0.5 µg/mL (≈ 1.14 µM); in test [5] it was at most 0.25 µg/mL; in test [6], 8 µg/mL (≈ 18.2 µM).

With `CC/N=C(/NCCCOc1c2[nH]c3ccc(F)cc3c2cc2c1[nH]c1ccc(F)cc12)NCCCN(C)C`, the MIC was 4 µg/mL (≈ 7.68 µM) in test [1]; at most 0.25 µg/mL in test [2]; 8 µg/mL (≈ 15.4 µM) in test [3]; at most 0.25 µg/mL in test [4]; 0.5 µg/mL (≈ 0.96 µM) in test [5]; 4 µg/mL (≈ 7.68 µM) in test [6].

In the case of `Clc1ccc2[nH]c3c(OCC4CCCN4)c4[nH]c5ccc(Cl)cc5c4cc3c2c1` (stereo not drawn), the MIC in test [1] stood at 1 µg/mL (≈ 2.36 µM); in test [2] it was 1 µg/mL (≈ 2.36 µM); in test [3] it was 8 µg/mL (≈ 18.9 µM); in test [4], 0.5 µg/mL (≈ 1.18 µM); in test [5], 0.5 µg/mL (≈ 1.18 µM); in test [6], 4 µg/mL (≈ 9.43 µM).

Turning to `C/N=C(\NC)NCCCOc1c2[nH]c3ccc(Cl)cc3c2cc2c1[nH]c1ccc(Cl)cc12`, the MIC in test [1] was 1 µg/mL (≈ 2.13 µM); in test [2] it was 0.5 µg/mL (≈ 1.07 µM); in test [3] it was 4 µg/mL (≈ 8.54 µM); in test [4], 1 µg/mL (≈ 2.13 µM); in test [5], 0.5 µg/mL (≈ 1.07 µM); in test [6] it was 4 µg/mL (≈ 8.54 µM).

Turning to `COc1c2[nH]c3ccc(F)cc3c2cc2c1[nH]c1ccc(F)cc12` [drawing 194], the MIC was above 16 µg/mL in test [1]; 1 µg/mL (≈ 3.1 µM) in test [2]; above 16 µg/mL in test [3]; 0.5 µg/mL (≈ 1.55 µM) in test [4]; 1 µg/mL (≈ 3.1 µM) in test [5]; above 16 µg/mL in test [6].

Regarding `CN(C)CCOc1c2[nH]c3ccc(F)cc3c2cc2c1[nH]c1ccc(F)cc12` [drawing 195], the MIC was 8 µg/mL (≈ 21.1 µM) in test [1]; 0.5 µg/mL (≈ 1.32 µM) in test [2]; 8 µg/mL (≈ 21.1 µM) in test [3]; 0.25 µg/mL (≈ 0.659 µM) in test [4]; 0.5 µg/mL (≈ 1.32 µM) in test [5]; 4 µg/mL (≈ 10.5 µM) in test [6].

`CN(C)CC#Cc1c2[nH]c3ccc(F)cc3c2cc2c1[nH]c1ccc(F)cc12` [drawing 210]: the MIC in test [1] was 2 µg/mL (≈ 5.36 µM); in test [2] it was 0.5 µg/mL (≈ 1.34 µM); in test [3], above 8 µg/mL; in test [4] it was 0.25 µg/mL (≈ 0.67 µM); in test [5], 0.25 µg/mL (≈ 0.67 µM); in test [6], 8 µg/mL (≈ 21.4 µM).

As for `N=C(N)NCCCOc1c2[nH]c3ccc(Cl)cc3c2cc2c1[nH]c1ccc(Cl)cc12` [drawing 217], the MIC turned out to be 1 µg/mL (≈ 2.27 µM) in test [1]; 0.25 µg/mL (≈ 0.568 µM) in test [2]; 2 µg/mL (≈ 4.54 µM) in test [3]; 0.25 µg/mL (≈ 0.568 µM) in test [4]; 0.25 µg/mL (≈ 0.568 µM) in test [5]; 1 µg/mL (≈ 2.27 µM) in test [6].

Take `OC1CCN(CCCOc2c3[nH]c4ccc(Cl)cc4c3cc3c2[nH]c2ccc(Cl)cc23)CC1` [drawing 229]: the MIC in test [1] is 2 µg/mL (≈ 4.15 µM); in test [2], 0.25 µg/mL (≈ 0.518 µM); in test [3], above 8 µg/mL; in test [4], 0.25 µg/mL (≈ 0.518 µM); in test [5] it was 0.25 µg/mL (≈ 0.518 µM); in test [6], 8 µg/mL (≈ 16.6 µM).

Regarding `Fc1ccc2[nH]c3c(OCCCn4cncn4)c4[nH]c5ccc(F)cc5c4cc3c2c1` [drawing 231], the MIC in test [1] was above 8 µg/mL; in test [2], 0.5 µg/mL (≈ 1.2 µM); in test [3], above 8 µg/mL; in test [4], 1 µg/mL (≈ 2.4 µM); in test [5], 1 µg/mL (≈ 2.4 µM); in test [6], above 8 µg/mL.
